Laboratory results published in the NIST ThermoML archive (doi:10.1016/j.jct.2007.02.004).

What was measured:
[1] = 293.15 K; 101.33 kPa; Liquid
[2] = refractive index (Na D-line) (dimensionless); conditions: 293.15 K; 101.33 kPa; Liquid; Standard Abbe refractometry
[3] = xn = mol fraction of the nth substance listed; conditions: 101 kPa, Liquid

CC(=O)c1ccccc1 [acetophenone]
Conditions | mass density [kg/m3] | refractive index
[1] | 1027.93 | –
[2] | – | 1.5336

CC(=O)c1ccccc1 [acetophenone] + CCCCCCO
mass density [kg/m3], [3]
Conditions | 293.15 K | 303.15 K | 313.15 K | 323.15 K
x1 = 0.0498 | 828.67 | 821.42 | 813.97 | 806.47
x1 = 0.1009 | 838.84 | 831.49 | 823.85 | 816.28
x1 = 0.1517 | 848.99 | 841.56 | 833.75 | 826.11
x1 = 0.2106 | 860.83 | 853.32 | 845.32 | 837.59
x1 = 0.2474 | 868.27 | 860.71 | 852.58 | 844.8
x1 = 0.3028 | 879.54 | 871.9 | 863.61 | 855.74
x1 = 0.3426 | 887.68 | 879.99 | 871.57 | 863.65
x1 = 0.3978 | 899.04 | 891.28 | 882.7 | 874.71
x1 = 0.4512 | 910.1 | 902.26 | 893.55 | 885.48
x1 = 0.4985 | 919.95 | 912.05 | 903.23 | 895.1
x1 = 0.5526 | 931.29 | 923.31 | 914.38 | 906.19
x1 = 0.6071 | 942.79 | 934.73 | 925.7 | 917.44
x1 = 0.6491 | 951.7 | 943.59 | 934.49 | 926.17
x1 = 0.7101 | 964.72 | 956.53 | 947.35 | 938.95
x1 = 0.7485 | 972.96 | 964.73 | 955.5 | 947.06
x1 = 0.8019 | 984.49 | 976.21 | 966.9 | 958.4
x1 = 0.8521 | 995.4 | 987.06 | 977.72 | 969.16
x1 = 0.9045 | 1006.85 | 998.46 | 989.09 | 980.48
x1 = 0.9554 | 1018.05 | 1009.61 | 1000.23 | 991.56

CC(=O)c1ccccc1 [acetophenone] + CCOC(=O)OCC
mass density [kg/m3], [3]
Conditions | 293.15 K | 303.15 K | 313.15 K | 323.15 K
x2 = 0.0511 | 1025.44 | 1016.4 | 1007.58 | 998.79
x2 = 0.1014 | 1023.08 | 1014.09 | 1005.19 | 996.27
x2 = 0.1501 | 1020.74 | 1011.77 | 1002.73 | 993.68
x2 = 0.1996 | 1018.43 | 1009.35 | 1000.2 | 991.08
x2 = 0.2465 | 1016.19 | 1007.04 | 997.78 | 988.56
x2 = 0.3041 | 1013.28 | 1004.02 | 994.63 | 985.24
x2 = 0.3467 | 1011.14 | 1001.78 | 992.31 | 982.8
x2 = 0.4001 | 1008.46 | 998.99 | 989.35 | 979.74
x2 = 0.4507 | 1005.87 | 996.27 | 986.55 | 976.77
x2 = 0.4888 | 1003.88 | 994.18 | 984.35 | 974.49
x2 = 0.5506 | 1000.64 | 990.73 | 980.71 | 970.76
x2 = 0.6038 | 997.77 | 987.73 | 977.48 | 967.47
x2 = 0.6498 | 995.25 | 985.06 | 974.69 | 964.54
x2 = 0.7104 | 991.92 | 981.54 | 971.04 | 960.63
x2 = 0.7513 | 989.53 | 979.05 | 968.47 | 957.86
x2 = 0.8078 | 986.29 | 975.68 | 964.89 | 954.13
x2 = 0.8522 | 983.66 | 972.91 | 961.99 | 951.07
x2 = 0.8993 | 980.83 | 969.91 | 958.99 | 947.76
x2 = 0.9488 | 977.82 | 966.78 | 955.63 | 944.32
